Read-outs that look alike come from different tables or passages of the source.
How the values were obtained:
[1] = test system: MV-4-11 human acute myeloid leukemia cell line; test: Second cell viability assay in MV-4-11 (Cell Titer-Glo); format: cell-based; conditions: MV4-11, Cell Titer-Glo, 72 hrs, read-out: Cell Viability IC50 in MV4-11 cells
Procedure: The effects of test compounds were studied in a second cell viability assay in the MV-4-11 human acute myeloid leukemia cell line. The cells were harvested during the logarithmic growth period and counted. Cells were seeded at a count of 15000 cells per well/100 μl. After seeding, cells were incubated at 37° C., 5% CO2 for 1 hr. Cells were treated with test compounds at 8 concentrations within a desired concentration range (e.g. 5 nM-[…]) for generation of dose response curves by preparing serial dilutions of the test compound in DMSO which were further diluted with culture medium and then added to each well. The plate was further incubated for another 72 hrs in a humidified incubator at 37° C. and 5% CO2. The assay was terminated by addition of Cell Titer-Glo reagent (Promega, Madison, Wis.) at ¼ the volume of total medium per well. Contents were mixed, the plate was incubated for 10 min at room temperature and luminescence was measured. Cell viability data were plotted using GraphPad Prism (GraphPad Software, Inc., San Diego, Calif.). In addition, a nonlinear regression model with a sigmoidal dose response and variable slope within GraphPad Prism was used to calculate the IC50 value of individual test compounds.

[2] = test system: IEC-6 rat intestinal epithelial cell line; test: IEC-6 cell viability, Protocol B (toxicity to non-cancerous cells); format: cell-based; conditions: IEC-6, 4000 cells per well, 48 hrs
Procedure: The effects of test compounds were also studied in the IEC-6 rat intestinal epithelial cell line to assess potential toxicity to non-cancerous cells. The cells were harvested during the logarithmic growth period and counted. In Protocol A, cells were seeded at a count of 3000 cells per well/100 μl in a 96-well plate. After seeding, cells were incubated at 37° C., 5% CO2 for 24 hr. Cells were treated with test compounds at 8 concentrations within a desired concentration range (e.g. 5 nM-10 μM) for generation of dose response curves by preparing serial dilutions of the test compound in DMSO which were further diluted with culture medium and then added to each well. The plate was further incubated for another 96 hrs in humidified incubator at 37° C. and 5% CO2. The assay was terminated by addition of resazurin (# R7017, Sigma). The plate was incubated for 4 hr at 37° C., 5% CO2 and fluorescence was measured using excitation and emission wavelengths of 535 and 590 nm, respectively. Cell viability data were plotted using GraphPad Prism (GraphPad Software, Inc., San Diego, Calif.). In addition, a nonlinear regression model with a sigmoidal dose response and variable slope within GraphPad Prism was used to calculate the IC50 value of individual test compounds. Protocol B was the same as Protocol A except that cells were seeded at a count of 4000 cells per well/100 μl in a 96-well plate, and the incubation with test compound was for 48 hrs instead of 96 hrs.

[3] = target: BRD4-2 (Homo sapiens (Human), UniProt O60885); test: Bromodomain and Extraterminal Domain (BET) Binding Assay; conditions: Table 3; read-out: BRD4-2 IC50
In short: (§1)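 AlphaScreen displacement of biotinylated H4 (1-21) K5/8/12/16Ac peptide, in 50 mM HEPES pH 7.5, 100 mM NaCl, 1 mg/ml BSA, 0.05% CHAPS, 0.5% DMSO. Protein-compound preincubation 30 min RT, then ligand 30 min, donor then acceptor beads 60 min dark. Inhibition versus plate controls; IC50 from 10-point titrations.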

[4] = target: BRD4-1 (Homo sapiens (Human), UniProt O60885); test: as above; conditions: Table 3; read-out: BRD4-1 IC50
In short: as §1

[5] = test system: c-Myc; test: Measurement of c-Myc suppression after washoff (Western blot); format: cell-based, human; conditions: MV4-11, 2 μM for 2 hr, washed, further 6 hr
Procedure: MV4-11 cells were incubated with 2 μM of JQ1, mivebresib or a test compound for 2 hr. The cells were then washed twice with fresh culture medium and further cultured for another 6 hr. Cells were extracted with SDS sample buffers and then subjected to Western blot analysis to measure c-Myc. Compounds 2, 3, 12, 17, 409, 411 and 412 were tested in these assays.

[6] = test system: 22Rv1 human prostate carcinoma cell line; test: Cell viability assay (resazurin); format: cell-based; conditions: 22Rv1, resazurin, 72 hrs
Procedure: The effects of test compounds were also studied in the 22Rv1 human prostate carcinoma and MDA-MB-231 human breast adenocarcinoma cell lines. The cells were harvested during the logarithmic growth period and counted. Cells were seeded at a count of 3000 cells (22Rv1) or 5000 cells (MDA-MB-231) per well/100 μl in a 96-well plate. After seeding, cells were incubated at 37° C., 5% CO2 for 24 hr. Cells were treated with test compounds at 8 concentrations within a desired concentration range (e.g. 5 nM-10 μM) for generation of dose response curves by preparing serial dilutions of the test compound in DMSO which were further diluted with culture medium and then added to each well. The plate was further incubated for another 72 hrs (22Rv1) or 96 hrs (MDA-MB-231) in humidified incubator at 37° C. and 5% CO2. The assay was terminated by addition of resazurin (# R7017, Sigma). The plate was incubated for 4 hr at 37° C., 5% CO2 and fluorescence was measured using excitation and emission wavelengths of 535 and 590 nm, respectively. Cell viability data were plotted using GraphPad Prism (GraphPad Software, Inc., San Diego, Calif.). In addition, a nonlinear regression model with a sigmoidal dose response and variable slope within GraphPad Prism was used to calculate the IC50 value of individual test compounds.

[7] = test system: 22Rv1 cells; test: 22Rv1 cell proliferation assay with wash-off or mock wash-off; format: cell-based, human; conditions: Homo sapiens
Procedure: A 22Rv1 cell proliferation assay was used to assess durability of test compound effects after transient exposure of test compound to cells. 22Rv1 cells were seeded at 3000 cells per well/100 μl in a 96-well plate and incubated with test compounds at specified dilutions for 2 hr at 37° C. and 5% CO2. Following the incubation, test compound was washed off and replacement culture medium without test compound was added. Wash-off was performed by three PBS washes. The cells were incubated for an additional 96 hr at 37° C. and 5% CO2. In parallel, a mock wash-off was performed with cells that were treated identically except that the replacement culture medium contained test compound. The plate was incubated for 4 hr at 37° C., 5% CO2 and fluorescence was measured using excitation and emission wavelengths of 535 and 590 nm, respectively. Cell viability data were plotted using GraphPad Prism (GraphPad Software, Inc., San Diego, Calif.). In addition, a nonlinear regression model with a sigmoidal dose response and variable slope within GraphPad Prism was used to calculate the IC50 value of individual test compounds.

SMILES	IC50 ([1]; Homo sapiens) [nM]	IC50 [3] [nM]	IC50 [4] [nM]	IC50 [6] [nM]	IC50 ([2]; Rattus norvegicus) [nM]	c-Myc suppression activity after washoff [5]	IC50 [1] [nM]	IC50 [2] [nM]	IC50 ([7]; 22Rv1, 2 hr exposure, three PBS washes, additional 96 hr without compound, read-out: Wash-off IC50) [nM]	IC50 ([7]; 22Rv1, 2 hr, replacement medium with test compound, additional 96 hr, read-out: Mock wash-off IC50) [nM]
CCS(=O)(=O)Nc1ccc(Oc2ccc(F)cc2F)c(-n2ccc(=O)c3ccccc32)c1 [Compound 709, N-(4-(2,4-difluorophenoxy)-3-(4-oxoquinolin-1(4H)-yl)phenyl)ethanesulfonamide]		93	1210				979	2900		
CC(=O)Nc1ccc(Oc2c(C)cc(F)cc2C)c(-n2cc(C)c(=O)c3ccccc32)c1 [Compound 710, N-(4-(4-fluoro-2,6-dimethylphenoxy)-3-(3-methyl-4-oxoquinolin-1(4H)-yl)phenyl)acetamide]	2460	292	8150	6660	7550					
C=CS(=O)(=O)Nc1ccc(Oc2ccc(F)cc2F)c(-c2cn(C)c(=O)cc2OC)c1 [Compound 406, N-(4-(2,4-difluorophenoxy)-3-(4-methoxy-1-methyl-6-oxo-1,6-dihydropyridin-3-yl)phenyl)ethenesulfonamide]	114	3	22						415	255

More lines, main results first:

IC50 ([1]; Homo sapiens) [nM]	IC50 [3] [nM]	IC50 [4] [nM]	IC50 [6] [nM]	SMILES	IC50 ([2]; Rattus norvegicus) [nM]	c-Myc suppression activity after washoff [5]	IC50 [1] [nM]	IC50 [2] [nM]	IC50 ([7]; 22Rv1, 2 hr exposure, three PBS washes, additional 96 hr without compound, read-out: Wash-off IC50) [nM]	IC50 ([7]; 22Rv1, 2 hr, replacement medium with test compound, additional 96 hr, read-out: Mock wash-off IC50) [nM]
71	5	20		CCS(=O)(=O)Nc1ccc(Oc2ccc(F)cc2F)c(-n2cc(Cl)c(=O)c3ccccc32)c1 [Compound 661, N-(3-(3-chloro-4-oxoquinolin-1(4H)-yl)-4-(2,4-difluorophenoxy)phenyl)ethanesulfonamide]	273					
51	11	183		C=CC(=O)Nc1ccc(Oc2ccc(F)cc2F)c(-c2cn(C)c(=O)cc2OC)c1 [Compound 407, N-(4-(2,4-difluorophenoxy)-3-(4-methoxy-1-methyl-6-oxo-1,6-dihydropyridin-3-yl)phenyl)acrylamide]	693	less durable activity				
526	11	1370	1270	CCS(=O)(=O)Nc1ccc(Oc2c(C)cc(F)cc2C)c(-n2cc(C)c(=O)c3ccccc32)c1 [Compound 570, N-(4-(4-fluoro-2,6-dimethylphenoxy)-3-(3-methyl-4-oxoquinolin-1(4H)-yl)phenyl)ethanesulfonamide]	2860					
